Results published in PubChem BioAssay (NCI).
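96-well plates; 48 h exposure; 5 concentrations. Endpoints by linear interpolation between flanking doses. Not reached: highest tested concentration assigned. Abbreviation: GI50, concentration required for 50% inhibition of growth. TGI: concentration producing complete growth inhibition.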

Legend:
Experiment in all cases: NCI anticancer screen, dose series, 48 h
[1] = test system: 786-0 renal
[2] = test system: A549 NSCLC
[3] = test system: ACHN renal
[4] = test system: CCRF-CEM leukemia
[5] = test system: COLO 205 colon
[6] = test system: DLD-1 colon
[7] = test system: EKVX NSCLC
[8] = test system: HCC-2998 colon
[9] = test system: HCT-15 colon
[10] = test system: HL-60(TB) leukemia
[11] = test system: HOP-18 NSCLC
[12] = test system: HOP-92 NSCLC
[13] = test system: IGROV1 ovarian
[14] = test system: K-562 leukemia
[15] = test system: KM12 colon
[16] = test system: M14 melanoma
[17] = test system: MALME-3M melanoma
[18] = test system: MOLT-4 leukemia
[19] = test system: NCI-H226 lung
[20] = test system: NCI-H23 lung
[21] = test system: OVCAR-5 ovarian
[22] = test system: OVCAR-8 ovarian
[23] = test system: RPMI-8226 leukemia
[24] = test system: RXF 393 renal
[25] = test system: SF-268 CNS
[26] = test system: SF-295 CNS
[27] = test system: SF-539 CNS
[28] = test system: SK-MEL-2 melanoma
[29] = test system: SK-MEL-28 melanoma
[30] = test system: SK-OV-3 ovarian
[31] = test system: SN12C renal
[32] = test system: SNB-19 CNS
[33] = test system: SNB-75 CNS
[34] = test system: SNB-78 CNS
[35] = test system: SR leukemia
[36] = test system: SW-620 colon
[37] = test system: TK-10 renal
[38] = test system: UACC-257 melanoma
[39] = test system: UACC-62 melanoma
[40] = test system: UO-31 renal
[41] = test system: A498 renal
[42] = test system: CAKI-1 renal
[43] = test system: DMS 114 small cell lung
[44] = test system: DMS 273 small cell lung
[45] = test system: HCT-116 colon
[46] = test system: HOP-62 NSCLC
[47] = test system: LOX IMVI melanoma
[48] = test system: LXFL 529 NSCLC
[49] = test system: NCI-H460 lung
[50] = test system: NCI-H522 lung
[51] = test system: OVCAR-3 ovarian
[52] = test system: OVCAR-4 ovarian
[53] = test system: SK-MEL-5 melanoma
[54] = test system: M19-MEL melanoma
[55] = test system: XF 498 CNS

CCCCCCCC(=O)[O-].CCCCCCCC(=O)[O-].N.N.N.N.[Co+3].[O-][Cl+3]([O-])([O-])[O-]
GI50 [1]: > 100 µM | TGI [1]: > 100 µM | GI50 [2]: > 100 µM | TGI [2]: > 100 µM | GI50 [3]: > 100 µM | TGI [3]: > 100 µM | GI50 [4]: > 100 µM | TGI [4]: > 100 µM | GI50 [5]: > 100 µM | TGI [5]: > 100 µM | GI50 [6]: > 100 µM | TGI [6]: > 100 µM | GI50 [7]: > 100 µM | TGI [7]: > 100 µM | GI50 [8]: > 100 µM | TGI [8]: > 100 µM | GI50 [9]: > 100 µM | TGI [9]: > 100 µM | GI50 [10]: > 100 µM | TGI [10]: > 100 µM | GI50 [11]: 54.8 µM | TGI [11]: > 100 µM | GI50 [12]: > 100 µM | TGI [12]: > 100 µM | GI50 [13]: 40.3 µM | TGI [13]: > 100 µM | GI50 [14]: > 100 µM | TGI [14]: > 100 µM | GI50 [15]: > 100 µM | TGI [15]: > 100 µM | GI50 [16]: > 100 µM | TGI [16]: > 100 µM | GI50 [17]: > 100 µM | TGI [17]: > 100 µM | GI50 [18]: > 100 µM | TGI [18]: > 100 µM | GI50 [19]: > 100 µM | TGI [19]: > 100 µM | GI50 [20]: > 100 µM | TGI [20]: > 100 µM | GI50 [21]: > 100 µM | TGI [21]: > 100 µM | GI50 [22]: > 100 µM | TGI [22]: > 100 µM | GI50 [23]: > 100 µM | TGI [23]: > 100 µM | GI50 [24]: 74.6 µM | TGI [24]: > 100 µM | GI50 [25]: 19.1 µM | TGI [25]: > 100 µM | GI50 [26]: > 100 µM | TGI [26]: > 100 µM | GI50 [27]: > 100 µM | TGI [27]: > 100 µM | GI50 [28]: > 100 µM | TGI [28]: > 100 µM | GI50 [29]: > 100 µM | TGI [29]: > 100 µM | GI50 [30]: > 100 µM | TGI [30]: > 100 µM | GI50 [31]: > 100 µM | TGI [31]: > 100 µM | GI50 [32]: > 100 µM | TGI [32]: > 100 µM | GI50 [33]: > 100 µM | TGI [33]: > 100 µM | GI50 [34]: > 100 µM | TGI [34]: > 100 µM | GI50 [35]: 69.9 µM | TGI [35]: > 100 µM | GI50 [36]: > 100 µM | TGI [36]: > 100 µM | GI50 [37]: 57.1 µM | TGI [37]: > 100 µM | GI50 [38]: > 100 µM | TGI [38]: > 100 µM | GI50 [39]: > 100 µM | TGI [39]: > 100 µM | GI50 [40]: > 100 µM | TGI [40]: > 100 µM

O=c1c2ccccc2oc2ccccc12 (tested in a mixture with another compound)
TGI [1]: > 100 µM | TGI [41]: 82.5 µM | TGI [2]: > 100 µM | TGI [3]: > 100 µM | TGI [42]: > 100 µM | TGI [4]: > 100 µM | TGI [5]: > 100 µM | TGI [6]: 7.75 µM | TGI [43]: 5.08 µM | TGI [44]: > 100 µM | TGI [7]: > 100 µM | TGI [8]: 89.9 µM | TGI [45]: > 100 µM | TGI [10]: > 100 µM | TGI [46]: > 100 µM | TGI [13]: 22.1 µM | TGI [14]: > 100 µM | TGI [15]: > 100 µM | TGI [47]: 17 µM | TGI [48]: > 100 µM | TGI [16]: > 100 µM | TGI [17]: 8.18 µM | TGI [49]: 25.9 µM | TGI [50]: > 100 µM | TGI [51]: > 100 µM | TGI [52]: > 100 µM | TGI [22]: > 100 µM | TGI [23]: > 100 µM | TGI [25]: > 100 µM | TGI [26]: 53.3 µM | TGI [27]: > 100 µM | TGI [53]: 7.61 µM | TGI [30]: 62.5 µM | TGI [31]: 60.8 µM | TGI [32]: > 100 µM | TGI [33]: 7.58 µM | TGI [35]: > 100 µM | TGI [36]: > 100 µM | TGI [38]: 9.31 µM | TGI [39]: > 100 µM | TGI [40]: > 100 µM

C/C=C(\NC(=O)C(CCCCN)NC(=O)C(C)NC(=O)C1CSC(C)C(NC(=O)C2CSCC(NC(=O)C(C)NC(=O)C(N)C(C)CC)C(=O)NC(CCCCN)C(=O)NC(Cc3ccccc3)C(=O)NC(CC(C)C)C(=O)N2)C(=O)N2CCCC2C(=O)NCC(=O)N1)C(=O)NCC(=O)NC1CSCC2NC(=O)C(Cc3ccc(O)cc3)NC(=O)C(CSC=CNC2=O)NC(=O)C(CC(N)=O)NC(=O)C(Cc2ccccc2)NC1=O (centres undefined)
TGI [6]: > 100 µM | TGI [43]: > 100 µM | TGI [44]: > 100 µM | TGI [48]: > 100 µM | TGI [54]: > 100 µM | TGI [20]: > 100 µM | TGI [34]: > 100 µM | TGI [55]: > 100 µM
